Target: PDGFβ (Homo sapiens (Human), UniProt P09619)
Assay: PDGF stimulated Ca2+ signal in vitro (PDGFβ cellular, FLIPR, NHDF-Ad)
Type: cell-based
Settings: PDGF stimulation 10 ng/mL, intracellular calcium

Sequence of PDGFβ (P09619 33-1106): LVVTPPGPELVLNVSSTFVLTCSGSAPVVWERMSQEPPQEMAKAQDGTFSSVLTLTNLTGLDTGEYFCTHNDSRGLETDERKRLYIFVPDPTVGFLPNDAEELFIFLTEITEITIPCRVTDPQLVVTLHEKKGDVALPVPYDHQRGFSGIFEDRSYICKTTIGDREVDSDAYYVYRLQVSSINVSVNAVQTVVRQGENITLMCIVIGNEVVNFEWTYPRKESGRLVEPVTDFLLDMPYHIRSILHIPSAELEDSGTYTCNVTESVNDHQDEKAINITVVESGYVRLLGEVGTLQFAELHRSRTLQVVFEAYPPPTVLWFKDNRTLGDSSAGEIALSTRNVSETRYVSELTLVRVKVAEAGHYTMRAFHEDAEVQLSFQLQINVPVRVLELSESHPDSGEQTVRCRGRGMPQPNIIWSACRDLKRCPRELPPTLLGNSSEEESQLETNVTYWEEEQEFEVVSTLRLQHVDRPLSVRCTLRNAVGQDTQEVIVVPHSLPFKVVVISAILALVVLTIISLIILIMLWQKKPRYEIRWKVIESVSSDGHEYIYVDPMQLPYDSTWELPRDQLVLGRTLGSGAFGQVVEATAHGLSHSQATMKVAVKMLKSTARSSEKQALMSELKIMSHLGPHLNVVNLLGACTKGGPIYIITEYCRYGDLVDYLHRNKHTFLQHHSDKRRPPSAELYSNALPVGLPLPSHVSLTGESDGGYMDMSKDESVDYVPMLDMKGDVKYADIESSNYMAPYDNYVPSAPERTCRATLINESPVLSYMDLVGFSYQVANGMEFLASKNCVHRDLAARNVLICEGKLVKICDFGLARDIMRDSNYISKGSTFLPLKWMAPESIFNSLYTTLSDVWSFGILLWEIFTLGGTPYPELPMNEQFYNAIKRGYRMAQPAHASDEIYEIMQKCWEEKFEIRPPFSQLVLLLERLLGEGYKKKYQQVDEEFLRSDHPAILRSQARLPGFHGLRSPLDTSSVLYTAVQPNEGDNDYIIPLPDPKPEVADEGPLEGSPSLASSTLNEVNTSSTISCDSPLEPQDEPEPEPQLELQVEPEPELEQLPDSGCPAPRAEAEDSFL

Compound	IC50 [nM]
Cc1ccoc1C(=O)Nc1cccc(Oc2ccnc(-c3cc(C(=O)NCC(O)CO)c[nH]3)c2)c1 (stereo not shown) [Example 15, N-(2,3-dihydroxypropyl)-5-(4-{3-[(3-methyl-2-furoyl)amino]phenoxy}pyridin-2-yl)-1H-pyrrole-3-carboxamide]	73
Cc1ccoc1C(=O)Nc1cccc(Oc2ccnc(-c3cc(C(=O)NO)c[nH]3)c2)c1 [Example 17, N-hydroxy-5-(4-{3-[(3-methyl-2-furoyl)amino]phenoxy}pyridin-2-yl)-1H-pyrrole-3-carboxamide]	61
Cc1ccc(F)c(NC(=O)c2cccc(Oc3ccnc(-c4cc(C(=O)O)c[nH]4)c3)c2)c1 [Example 19, 5-{4-[3-(2-Fluoro-5-methyl-phenylcarbamoyl)-phenoxy]-pyridin-2-yl}-1H-pyrrole-3-carboxylic acid]	135
Cc1cccc(NC(=O)c2cccc(Oc3ccnc(-c4cc(C(=O)O)c[nH]4)c3)c2)c1 [Example 22, 5-[4-(3-m-Tolylcarbamoyl-phenoxy)-pyridin-2-yl]-1H-pyrrole-3-carboxylic acid]	105
Cc1ccoc1C(=O)Nc1cccc(Oc2ccnc(-c3cc(C(=O)N=S(C)(C)=O)c[nH]3)c2)c1 [Example 30, N-[dimethyl(oxido)-lambda˜4˜-sulfanylidene]-5-(4-{3-[(3-methyl-2-furoyl)amino]phenoxy}pyridin-2-yl)-1H-pyrrole-3-carboxamide]	94
Cc1ccc(F)c(NC(=O)Nc2ccc(Oc3ccnc(-c4cc(C(=O)NCCCC(=O)NCC(O)CO)c[nH]4)c3)cc2)c1 (stereo not shown) [Example 54, N-{4-[(2,3-dihydroxypropyl)amino]-4-oxobutyl}-5-{4-[4-({[(2-fluoro-5-methylphenyl)amino]carbonyl}amino)phenoxy]pyridin-2-yl}-1H-pyrrole-3-carboxamide]	191
Cc1ccc(F)c(NC(=O)Nc2ccc(Oc3ccnc(-c4cc(C(=O)O)c[nH]4)c3)cc2F)c1 [Example 96, 5-{4-[3-fluoro-4-({[(2-fluoro-5-methylphenyl)amino]carbonyl}amino)phenoxy]pyridin-2-yl}-1H-pyrrole-3-carboxylic acid]	69
Cc1ccc(F)c(NC(=O)Nc2ccc(Oc3ccnc(-c4cc(C(=O)N=S(C)(C)=O)c[nH]4)c3)cc2)c1 [Example 101, N-[dimethyl(oxido)-lambda˜4˜-sulfanylidene]-5-{4-[4-({[(2-fluoro-5-methylphenyl)amino]carbonyl}amino)phenoxy]pyridin-2-yl}-1H-pyrrole-3-carboxamide]	82
Cc1ccc(F)c(NC(=O)Nc2ccc(Oc3ccnc(-c4cc(C(=O)NO)c[nH]4)c3)cc2)c1 [Example 108, 5-{4-[4-({[(2-fluoro-5-methylphenyl)amino]carbonyl}amino)phenoxy]pyridin-2-yl}-N-hydroxy-1H-pyrrole-3-carboxamide]	43
Cc1cccc(NC(=O)Nc2ccc(Oc3ccnc(-c4cc(C(=O)O)c[nH]4)c3)cc2)c1 [Example 115, 5-{4-[4-({[(3-methylphenyl)amino]carbonyl}amino)phenoxy]pyridin-2-yl}-1H-pyrrole-3-carboxylic acid]	44
O=C(Nc1ccc(Oc2ccnc(-c3cc(C(=O)O)c[nH]3)c2)cc1)Nc1ccc(Cl)c(C(F)(F)F)c1 [Example 121, 5-(4-{4-[({[4-chloro-3-(trifluoromethyl)phenyl]amino}carbonyl)amino]phenoxy}pyridin-2-yl)-1H-pyrrole-3-carboxylic acid]	102
Cc1ccc(F)c(NC(=O)Nc2ccc(Oc3ccnc(-c4csc(C(=O)O)c4)c3)cc2)c1 [Example 123, 4-{4-[4-({[(2-fluoro-5-methylphenyl)amino]carbonyl}amino)phenoxy]pyridin-2-yl}thiophene-2-carboxylic acid]	85
Cc1ccc(F)c(NC(=O)Nc2ccc(Oc3ccnc(-c4cc(C(=O)NCC(O)CO)c[nH]4)c3)cc2)c1 (stereo not shown) [Example 127, N-(2,3-dihydroxypropyl)-5-{4-[4-({[(2-fluoro-5-methylphenyl)amino]carbonyl}amino)phenoxy]pyridin-2-yl}-1H-pyrrole-3-carboxamide]	91

Now those with a lower IC50, led by results:

IC50 [nM]	Compound
39	Cc1ccoc1C(=O)Nc1cccc(Oc2ccnc(-c3cc(C(=O)OCC(O)CO)c[nH]3)c2)c1 (stereo not shown) [Example 21, 2,3-dihydroxypropyl 5-(4-{3-[(3-methyl-2-furoyl)amino]phenoxy}pyridin-2-yl)-1H-pyrrole-3-carboxylate]
39	Cc1cccc(NC(=O)Nc2ccc(Oc3ccnc(-c4cc(C(=O)NCC(O)CO)c[nH]4)c3)cc2)c1 (stereo not shown) [Example 92, N-(2,3-dihydroxypropyl)-5-{4-[4-({[(3-methylphenyl)amino]carbonyl}amino)phenoxy]pyridin-2-yl}-1H-pyrrole-3-carboxamide]
38	Cc1cccc(NC(=O)Nc2ccc(Oc3ccnc(-c4cc(C(=O)N5CC[C@@H](O)C5)c[nH]4)c3)cc2)c1 (stereo in doubt) [Example 91, 1-{4-[(2-{4-[(3-hydroxypyrrolidin-1-yl)carbonyl]-1H-pyrrol-2-yl}pyridin-4-yl)oxy]phenyl}-3-(3-methylphenyl)urea]
32	Cc1ccc(F)c(NC(=O)Nc2ccc(Oc3ccnc(-c4cc(C(=O)NCCCO)c[nH]4)c3)cc2)c1 [Example 110, 5-{4-[4-({[(2-fluoro-5-methylphenyl)amino]carbonyl}amino)phenoxy]pyridin-2-yl}-N-(3-hydroxypropyl)-1H-pyrrole-3-carboxamide]
32	Cc1ccc(F)c(NC(=O)Nc2ccc(Oc3ccnc(-c4cc(C(=O)OCC(O)CO)c[nH]4)c3)cc2)c1 (stereo not shown) [Example 130, 2,3-dihydroxypropyl 5-{4-[4-({[(2-fluoro-5-methylphenyl)amino]carbonyl}amino)phenoxy]pyridin-2-yl}-1H-pyrrole-3-carboxylate]
26	Cc1ccc(F)c(NC(=O)Nc2ccc(Oc3ccnc(-c4cc(C(=O)NCCCC(N)=O)c[nH]4)c3)cc2)c1 [Example 55, N-(4-amino-4-oxobutyl)-5-{4-[4-({[(2-fluoro-5-methylphenyl)amino]carbonyl}amino)phenoxy]pyridin-2-yl}-1H-pyrrole-3-carboxamide]
21	Cc1cccc(NC(=O)Nc2ccc(Oc3ccnc(-c4cc(C(=O)N5CCC[C@@H](O)C5)c[nH]4)c3)cc2)c1 (stereo in doubt) [Example 90, 1-{4-[(2-{4-[(3-hydroxypiperidin-1-yl)carbonyl]-1H-pyrrol-2-yl}pyridin-4-yl)oxy]phenyl}-3-(3-methylphenyl)urea]
14	CCNC(=O)c1c[nH]c(-c2cc(Oc3ccc(NC(=O)Nc4cccc(C)c4)cc3)ccn2)c1 [Example 93, N-ethyl-5-{4-[4-({[(3-methylphenyl)amino]carbonyl}amino)phenoxy]pyridin-2-yl}-1H-pyrrole-3-carboxamide]
8	COC(=O)[C@@H]1CCCN1CCNC(=O)c1c[nH]c(-c2cc(Oc3ccc(NC(=O)Nc4cc(C)ccc4F)cc3)ccn2)c1 [Example 102, methyl (2S)-1-(2-{[(5-{4-[4-({[(2-fluoro-5-methylphenyl)amino]carbonyl}amino)phenoxy]pyridin-2-yl}-1H-pyrrol-3-yl)carbonyl]amino}ethyl)pyrrolidine-2-carboxylate]

— patent US8614234B2, “Compounds as tyrosine kinase modulators” (Allergan, Inc., priority 2009, dated 2013)
